In patent US9808003B2, “Herbicidally active 2-(substituted-phenyl)-cyclopentane-1,3-dione compounds and derivatives thereof” (Syngenta Limited, priority 2013, dated 2017):

Experiments:
Type in all cases: in vivo
[1] = test system: Alopecurus myosuroides (ALOMY); assay: Test 1B glasshouse assay, post-emergence herbicidal activity against grassy weeds; conditions: 14 DAA
Method: (§1) Biological Example 1B tests the herbicidal activity of“technical” compounds (i.e. compounds not previously formulated before the test), as the herbicides under test.
(§2) An “instant formulation”, known as the “IF50”, containing 50 g/liter (i.e. 5% w/v) of the “technical” (i.e. unformulated) active ingredient (i.e. the herbicide under test), is prepared by dissolving the active ingredient in a mixture of organic solvents and emulsifier, details of which are provided in the Table below.
(§3) This IF50 is mixed with a small, variable amount of acetone to aid dissolution, before addition of a 0.5% v/v aqueous solution of the adjuvant Adigor™ (an adjuvant containing rapeseed oil methyl ester, ethoxylated alcohols, and a mixture of heavy aromatic hydrocarbons, e.g. available from Syngenta), as the aqueous diluent, to form an aqueous spray solution which contains a predetermined concentration of the active ingredient (which varies depending on the application rate of the active ingredient to the plants) and 0.5% v/v of the adjuvant Adigor™. This aqueous spray solution is suitable for spraying onto plants.
(§4) Seeds of a variety of test species are sown in standard soil in pots. After cultivation for 14 days under controlled conditions in a glasshouse (at 22/16° C., day/night; 16 hours light; 65% humidity), the plants are sprayed post-emergence with the above-mentioned aqueous spray solution containing inter alia the “technical” active ingredient (i.e. the herbicide under test) and the adjuvant Adigor™.
(§5) The test plants are then grown on under controlled conditions in the glasshouse (at 22/16° C., day/night; 16 hours light; 65% humidity) and are watered twice daily. 14 days after application of the test herbicide, the test is evaluated visually for percentage phytotoxicity to the plant (where 100%=total damage to plant; 0%=no damage to plant).
(§6) More specifically, post-emergence herbicidal activity (phytotoxicity) data, on certain tested grassy monocotyledonous weeds (and/or plants of the type Gramineae) and cereal crops in the glasshouse, are measured 14 days after application of the herbicide (14 DAA), typically for inter alia one or more of the following application rates: • (a) a post-emergence application rate of 60 g/ha of the test herbicide with or without 50 g/ha of cloquintocet-mexyl safener, and • (b) a post-emergence application rate of 90 g/ha of the test herbicide with 50 g/ha of cloquintocet-mexyl safener, and • (c) a post-emergence application rate of 120 g/ha of the test herbicide with 50 g/ha of cloquintocet-mexyl safener.
(§7) The cloquintocet-mexyl, when used, is present in the formulation containing the herbicide under test dissolved in acetone plus IF50.
(§8) The range of herbicide application rates tested sometimes includes application rates other than those shown above, and the rates can vary depending on the herbicide under test.
(§9) Herbicidal activity (phytotoxicity) is evaluated visually, and an assessed percentage phytotoxicity score is given for each herbicidal application on each plant species (with 100%=total damage to plant; 0%=no damage to plant; the assessment is recorded in increments of 1%). Two replicates are made for each experiment, and the mean herbicidal activity (phytotoxicity) data is reported.
(§10) For compounds A34, A98, A99, A87, A100, A101, A89, A120, A120A, A120B, A23, A127, A128, A89, A112 and A113 the tested weeds were as follows: Avena fatua (AVEFA), Lolium multiflorum (LOLMU), Setaria viridis (SETVI), Poa annua (POAAN), Alopecurus myosuroides (ALOMY). All five of these are grassy monocotyledonous weeds. Except for SETVI, these are all “cool-season” grassy monocotyledonous weeds.

Avena fatua (AVEFA) = assay: as above; conditions: 14 DAA
Method: as §1, §2, §3, §4, §5, §6, §7, §8, §9, §10

[2] = test system: Lolium multiflorum (LOLMU); assay: as above; conditions: 14 DAA
Method: as §1, §2, §3, §4, §5, §6, §7, §8, §9, §10

Poa annua (POAAN) = assay: as above; conditions: 14 DAA
Method: as §1, §2, §3, §4, §5, §6, §7, §8, §9, §10

Setaria viridis (SETVI) = assay: as above; conditions: 14 DAA
Method: as §1, §2, §3, §4, §5, §6, §7, §8, §9, §10

[3] = test system: Spring Barley “Harrington”; assay: Test 1B glasshouse assay, post-emergence herbicidal activity against cereal crops
Method: as §1, §2, §3, §4, §5, §6, §7, §8, §9

Winter Barley “Suzuka” = assay: as above
Method: as §1, §2, §3, §4, §5, §6, §7, §8, §9

Winter Wheat “Hereward” = assay: as above
Method: as §1, §2, §3, §4, §5, §6, §7, §8, §9

Spring Wheat “Freya” = assay: as above
[4] = 30 g/ha herbicide, 50 g/ha cloquintocet-mexyl
[5] = 45 g/ha herbicide, 50 g/ha cloquintocet-mexyl
[6] = 60 g/ha herbicide, 0 g/ha cloquintocet-mexyl
[7] = 60 g/ha herbicide, 50 g/ha cloquintocet-mexyl
[8] = herbicide 30 g/ha, cloquintocet-mexyl 50 g/ha
[9] = herbicide 45 g/ha, cloquintocet-mexyl 50 g/ha
[10] = herbicide 60 g/ha, cloquintocet-mexyl 0 g/ha
[11] = herbicide 60 g/ha, cloquintocet-mexyl 50 g/ha

| Compound | Post-emergence herbicidal activity, percentage phytotoxicity, ALOMY [1, 4] | Post-emergence herbicidal activity, percentage phytotoxicity, ALOMY [1, 5] | Post-emergence herbicidal activity, percentage phytotoxicity, ALOMY [1, 6] | Post-emergence herbicidal activity, percentage phytotoxicity, ALOMY [1, 7] | Post-emergence herbicidal activity, percentage phytotoxicity, AVEFA (Avena fatua (AVEFA); [4]) | Post-emergence herbicidal activity, percentage phytotoxicity, AVEFA (Avena fatua (AVEFA); [5]) | Post-emergence herbicidal activity, percentage phytotoxicity, AVEFA (Avena fatua (AVEFA); [6]) | Post-emergence herbicidal activity, percentage phytotoxicity, AVEFA (Avena fatua (AVEFA); [7]) | Post-emergence herbicidal activity, percentage phytotoxicity, LOLMU [2, 4] | Post-emergence herbicidal activity, percentage phytotoxicity, LOLMU [2, 5] | Post-emergence herbicidal activity, percentage phytotoxicity, LOLMU [2, 6] | Post-emergence herbicidal activity, percentage phytotoxicity, LOLMU [2, 7] | Post-emergence herbicidal activity, percentage phytotoxicity, POAAN (Poa annua (POAAN); [4]) | Post-emergence herbicidal activity, percentage phytotoxicity, POAAN (Poa annua (POAAN); [5]) | Post-emergence herbicidal activity, percentage phytotoxicity, POAAN (Poa annua (POAAN); [6]) | Post-emergence herbicidal activity, percentage phytotoxicity, POAAN (Poa annua (POAAN); [7]) | Post-emergence herbicidal activity, percentage phytotoxicity, SETVI (Setaria viridis (SETVI); [4]) | Post-emergence herbicidal activity, percentage phytotoxicity, SETVI (Setaria viridis (SETVI); [5]) | Post-emergence herbicidal activity, percentage phytotoxicity, SETVI (Setaria viridis (SETVI); [6]) | Post-emergence herbicidal activity, percentage phytotoxicity, SETVI (Setaria viridis (SETVI); [7]) | further results |
| --- | --- | --- | --- | --- | --- | --- | --- | --- | --- | --- | --- | --- | --- | --- | --- | --- | --- | --- | --- | --- | --- |
| Cc1cc(C)c(C2C(=O)C[C@@H](CCNC(=O)c3cccc(F)n3)C2=O)c(C)c1 (stereo partly drawn) [Compound A112] | 97% | 97% | 99% | 98% | 93% | 94% | 98% | 97% | 98% | 100% | 100% | 100% | 0% | 0% | 40% | 13% | 100% | 100% | 100% | 100% | Percentage Phytotoxicity Spring Barley “Harrington” [3, 8]: 30%; Percentage Phytotoxicity Spring Barley “Harrington” [3, 9]: 45%; Percentage Phytotoxicity Spring Barley “Harrington” [3, 10]: 93%; Percentage Phytotoxicity Spring Barley “Harrington” [3, 11]: 73%; Percentage Phytotoxicity Winter Barley “Suzuka” (Winter Barley “Suzuka”; [8]): 18%; Percentage Phytotoxicity Winter Barley “Suzuka” (Winter Barley “Suzuka”; [9]): 30%; Percentage Phytotoxicity Winter Barley “Suzuka” (Winter Barley “Suzuka”; [10]): 88%; Percentage Phytotoxicity Winter Barley “Suzuka” (Winter Barley “Suzuka”; [11]): 53%; Percentage Phytotoxicity Winter Wheat “Hereward” (Winter Wheat “Hereward”; [8]): 33%; Percentage Phytotoxicity Winter Wheat “Hereward” (Winter Wheat “Hereward”; [9]): 40%; Percentage Phytotoxicity Winter Wheat “Hereward” (Winter Wheat “Hereward”; [10]): 85%; Percentage Phytotoxicity Winter Wheat “Hereward” (Winter Wheat “Hereward”; [11]): 50%; Percentage Phytotoxicity Spring Wheat “Freya” (Spring Wheat “Freya”; [8]): 25%; Percentage Phytotoxicity Spring Wheat “Freya” (Spring Wheat “Freya”; [9]): 33%; Percentage Phytotoxicity Spring Wheat “Freya” (Spring Wheat “Freya”; [10]): 75%; Percentage Phytotoxicity Spring Wheat “Freya” (Spring Wheat “Freya”; [11]): 50% |
| Cc1cc(C)c(C2C(=O)C[C@H](CCNC(=O)c3cccc(F)n3)C2=O)c(C)c1 (stereo partly drawn) [Compound A113] | 0% | 18% | 20% | 25% | 1% | 3% | 5% | 3% | 3% | 20% | 45% | 23% | 0% | 0% | 8% | 0% | 5% | 40% | 53% | 55% | Percentage Phytotoxicity Spring Barley “Harrington” [3, 8]: 0%; Percentage Phytotoxicity Spring Barley “Harrington” [3, 9]: 0%; Percentage Phytotoxicity Spring Barley “Harrington” [3, 10]: 33%; Percentage Phytotoxicity Spring Barley “Harrington” [3, 11]: 8%; Percentage Phytotoxicity Winter Barley “Suzuka” (Winter Barley “Suzuka”; [8]): 0%; Percentage Phytotoxicity Winter Barley “Suzuka” (Winter Barley “Suzuka”; [9]): 0%; Percentage Phytotoxicity Winter Barley “Suzuka” (Winter Barley “Suzuka”; [10]): 28%; Percentage Phytotoxicity Winter Barley “Suzuka” (Winter Barley “Suzuka”; [11]): 0%; Percentage Phytotoxicity Winter Wheat “Hereward” (Winter Wheat “Hereward”; [8]): 0%; Percentage Phytotoxicity Winter Wheat “Hereward” (Winter Wheat “Hereward”; [9]): 0%; Percentage Phytotoxicity Winter Wheat “Hereward” (Winter Wheat “Hereward”; [10]): 3%; Percentage Phytotoxicity Winter Wheat “Hereward” (Winter Wheat “Hereward”; [11]): 0%; Percentage Phytotoxicity Spring Wheat “Freya” (Spring Wheat “Freya”; [8]): 3%; Percentage Phytotoxicity Spring Wheat “Freya” (Spring Wheat “Freya”; [9]): 0%; Percentage Phytotoxicity Spring Wheat “Freya” (Spring Wheat “Freya”; [10]): 7%; Percentage Phytotoxicity Spring Wheat “Freya” (Spring Wheat “Freya”; [11]): 0% |
| Cc1cc(C)c(C2C(=O)C[C@@H](CCNC(=O)c3cc(Cl)ccn3)C2=O)c(C)c1 (stereo partly drawn) [Compound A127] | 48% | 63% | 78% | 68% | 55% | 80% | 85% | 90% | 65% | 83% | 97% | 83% | 0% | 0% | 0% | 0% | 97% | 99% | 100% | 100% | Percentage Phytotoxicity Spring Barley “Harrington” [3, 8]: 0%; Percentage Phytotoxicity Spring Barley “Harrington” [3, 9]: 0%; Percentage Phytotoxicity Spring Barley “Harrington” [3, 10]: 83%; Percentage Phytotoxicity Spring Barley “Harrington” [3, 11]: 8%; Percentage Phytotoxicity Winter Barley “Suzuka” (Winter Barley “Suzuka”; [8]): 0%; Percentage Phytotoxicity Winter Barley “Suzuka” (Winter Barley “Suzuka”; [9]): 0%; Percentage Phytotoxicity Winter Barley “Suzuka” (Winter Barley “Suzuka”; [10]): 85%; Percentage Phytotoxicity Winter Barley “Suzuka” (Winter Barley “Suzuka”; [11]): 5%; Percentage Phytotoxicity Winter Wheat “Hereward” (Winter Wheat “Hereward”; [8]): 0%; Percentage Phytotoxicity Winter Wheat “Hereward” (Winter Wheat “Hereward”; [9]): 0%; Percentage Phytotoxicity Winter Wheat “Hereward” (Winter Wheat “Hereward”; [10]): 65%; Percentage Phytotoxicity Winter Wheat “Hereward” (Winter Wheat “Hereward”; [11]): 5%; Percentage Phytotoxicity Spring Wheat “Freya” (Spring Wheat “Freya”; [8]): 0%; Percentage Phytotoxicity Spring Wheat “Freya” (Spring Wheat “Freya”; [9]): 3%; Percentage Phytotoxicity Spring Wheat “Freya” (Spring Wheat “Freya”; [10]): 70%; Percentage Phytotoxicity Spring Wheat “Freya” (Spring Wheat “Freya”; [11]): 5% |
